Results on 18 molecules are retold here after paper PMC6270201, “Eco-Friendly Synthesis and Antiproliferative Evaluation of Some Oxygen Substituted Diaryl Ketones” (Molecules, 2013).

Data set [1] deals with DU-145 (prostate) human-derived tumor cell line. Briefly: MTT reduction antiproliferative assay, DU-145 prostate cells. To be noted: 48 h incubation, mean of at least three experiments, read-out: EC50 ± SEM DU-145. It is filed as cell-based. The method, then:
(§1) The oxygen-substituted diaryl ketones 3–23 were evaluated for their in vitro antiproliferative activity on a panel of four cell lines, including non-tumor fibroblasts (Balb/3T3) and three human-derived tumor cell lines, namely DU-145 (prostate), T24 (bladder) and MCF7 (breast), using the conventional microculture tetrazolium reduction assay.
(§2) These values were calculated from their effects on MTT reduction in three cancer cell lines and Balb/3T3 non transformed mouse fibroblasts as a function of their concentration during 48 h of incubation. All three cancer cell lines were similarly sensitive to these compounds. […] The biological activity differences of compounds 12 and 22 with respect to their analogues could be attributed to the 3,4,5-trimethoxy substitution on the A-phenyl ring. According to literature precedents, the 3,4,5-trimethoxyphenyl ring is considered essential for the antitubulin activity of a broad variety of antimitotic compounds [36, 38, 39, 40, 41, 42, 43, 44, 45]. […] In this context, only compound 22 have a good mean selectivity index (2.45).
(§3) Human cancer cell lines (T24, DU-145, MCF7) were cultured in high-glucose Dulbecco's modified Eagle medium (Gibco, Grand Island, NY, USA) supplemented with 10% foetal calf serum, penicillin (100 U/mL), and streptomycin (100 μg/mL). Balb/3T3 cells (normal mouse fibroblasts) were cultured in the same medium, except that the foetal calf serum was replaced by 10% newborn calf serum. All cultures were kept at 37 °C in 95% air/5% CO2 at 100% humidity. Phosphate-buffered saline (PBS) was purchased from Gibco. Cells were incubated at the indicated times at 37 °C with or without hydroquinones at various concentrations.
(§4) The cytotoxicity of the bis aryl ketones was assessed by following the reduction of MTT (3-(4,5-dimethylthiazolyl-2)-2,5-diphenyltetrazolium bromide) to formazan blue. Briefly, cells were seeded into 96-well plates at a density of 10,000 cells/well for 24 h and then incubated for 48 h with or without the compounds. Cells were then washed twice with warm PBS and incubated with MTT (0.5 mg/mL) for 2 h at 37 °C. Incubation medium was thereafter discarded and the blue formazan crystals were solubilized by adding 100 μL DMSO/well. The colour solution was subsequently read at 550 nm. Results are expressed as % of MTT reduction compared to untreated control conditions. The calculation of EC50 values was performed by using GraphPad Prism software (San Diego, CA, USA).

The subject of data set [2] is MCF7 (breast) human-derived tumor cell line. Briefly: MTT reduction antiproliferative assay, MCF7 breast cells. Particulars: 48 h incubation, mean of at least three experiments, read-out: EC50 ± SEM MCF-7. The data set is classed as cell-based. As to the method:
as §1, §2, §3, §4
(Formazan colour is commonly taken as a measure of viable cells.)

For data set [3], the system named is T24 (bladder) human-derived tumor cell line. Briefly: MTT reduction antiproliferative assay, T24 bladder cells. Particulars: 48 h incubation, mean of at least three experiments, read-out: EC50 ± SEM T24. It is filed as cell-based. The method, then: as §1, §2, §3, §4
Data set [4] relates to Balb/3T3 non-tumor fibroblasts. Briefly: MTT reduction assay, non-tumor fibroblasts. The data set is classed as cell-based. To be noted: Mus musculus, 48 h incubation, mean of at least three experiments, read-out: EC50 ± SEM BALB/3T3. The method, then: as §1, §2, §3, §4
Data set [5] has as its system Balb/3T3 fibroblasts vs T24, DU-145 and MCF7 tumor cells. Briefly: Mean selective index, fibroblasts versus tumor cells. Particulars: EC50 values fibroblasts/EC50 values tumor cells. It is filed as cell-based. The method, then:
These values were calculated from their effects on MTT reduction in three cancer cell lines and Balb/3T3 non transformed mouse fibroblasts as a function of their concentration during 48 h of incubation.

As to `COc1cc(C(=O)c2cc(O)ccc2O)cc(OC)c1O` [compound 13, (2,5-Dihydroxyphenyl)(4'-hydroxy-3',5'-dimethoxyphenyl)methanone], the melting point – broadly, the temperature, or range, at which the solid turns liquid – was 200 to 201 °C. In addition, the EC50 in data set [1] came to 113 ± 10.7 µM. Moreover, in data set [2], the EC50 is greater than 350 µM. In addition, the EC50 in data set [3] is greater than 350 µM. Also, the EC50 in data set [4] stood at 19.1 ± 3.1 µM.

`Cc1cccc(C(=O)c2cc(O)c3ccccc3c2O)c1` [compound 15, (1,4-Dihydroxynaphthalen-2-yl)(3'-methylphenyl)methanone] yielded a melting point of 154 to 155 °C. In addition, the “MSI: Mean Selective Index” value in data set [5] was determined as 0.99. For the same molecule, in data set [1], the EC50 was determined as 147 ± 15.9 µM. In data set [2], the EC50 is 145 ± 12.7 µM. For the same molecule, the EC50 in data set [3] was found to be 137 ± 11.7 µM. In addition, in data set [4], the EC50 was determined as 142 ± 13.9 µM.

Take `Cc1cccc(C(=O)c2cc(O)ccc2O)c1` [compound 5, (2,5-Dihydroxyphenyl)(3'-methylphenyl)methanone]: the melting point fell in the range of 119 to 120 °C. The “MSI: Mean Selective Index” value in data set [5] amounted to 0.49. Moreover, the EC50 in data set [1] turned out to be 186 ± 17.8 µM. In addition, the EC50 in data set [2] is 226 ± 24.2 µM. Further, the EC50 in data set [3] came to 202 ± 15.9 µM. Besides, the EC50 in data set [4] worked out at 100 ± 9.5 µM.

On to `Cc1ccc(C(=O)c2cc(O)c3ccccc3c2O)cc1` [compound 16, (1,4-Dihydroxynaphthalen-2-yl)(4'-methylphenyl)methanone], for which the melting point lay within 150 to 151 °C. In data set [5], the “MSI: Mean Selective Index” value came out at 0.98. The EC50 in data set [1] stood at 158 ± 13.7 µM. In addition, the EC50 in data set [2] was found to be 134 ± 14.9 µM. For the same molecule, the EC50 in data set [3] was determined as 135 ± 12.8 µM. Further, the EC50 in data set [4] came out at 139 ± 15.2 µM.

`Cc1ccccc1C(=O)c1cc(O)ccc1O` [compound 4, (2,5-Dihydroxyphenyl)(2'-methylphenyl)methanone]: the melting point fell in the range of 104 to 105 °C. The “MSI: Mean Selective Index” value in data set [5] turned out to be 1.06. Besides, in data set [1], the EC50 stood at 172 ± 19.7 µM. Further, the EC50 in data set [2] came out at 181 ± 15.8 µM. The EC50 in data set [3] was determined as 172 ± 13.2 µM. Further, the EC50 in data set [4] came to 184 ± 17.6 µM.

`COc1cccc2c1C(=O)c1c(O)c3c(c(O)c1C2=O)C[C@@](O)(C(=O)CO)C[C@@H]3O[C@H]1C[C@H](N)[C@H](O)[C@H](C)O1` [DOX, doxorubicin, reference compound]: the “MSI: Mean Selective Index” value in data set [5] is on record as 0.44. Besides, the EC50 in data set [1] came to 0.42 ± 0.03 µM; in data set [2], 0.33 ± 0.05 µM; in data set [3], 0.65 ± 0.07 µM; in data set [4] it was 0.19 ± 0.01 µM.

As to `CO[C@@]12[C@H](COC(N)=O)C3=C(C(=O)C(C)=C(N)C3=O)N1C[C@@H]1N[C@@H]12` [MIT, mitomycin C, reference compound], the EC50 was found to be 14.3 ± 2.6 µM in data set [1], 16.8 ± 2.9 µM in data set [2], 42.2 ± 5.8 µM in data set [3] and 27.3 ± 3.3 µM in data set [4].

`COc1cc(C(=O)c2cc(O)c3ccccc3c2O)ccc1O` [compound 21, (1,4-Dihydroxynaphthalen-2-yl)(4'-hydroxy-3'-methoxyphenyl)methanone] showed a melting point of 221 to 222 °C. The “MSI: Mean Selective Index” value in data set [5] was 0.45. Further, in data set [1], the EC50 was determined as 89 ± 7.3 µM. Also, in data set [2], the EC50 was 15.7 ± 4.6 µM. Besides, the EC50 in data set [3] stood at 86.6 ± 9.6 µM. The EC50 in data set [4] turned out to be 15.7 ± 3.9 µM.

`COc1ccc(C(=O)c2cc(O)c3ccccc3c2O)cc1OC` [compound 20, (1,4-Dihydroxynaphthalen-2-yl)(3',4'-dimethoxyphenyl)methanone] gave a melting point of 212 to 213 °C. Also, the “MSI: Mean Selective Index” value in data set [5] is 0.11. In data set [1], the EC50 came to 61.8 ± 5.6 µM. Moreover, the EC50 in data set [2] came to 12.2 ± 3.8 µM. In data set [3], the EC50 was found to be 46.8 ± 5.1 µM. Also, the EC50 in data set [4] is 2.8 ± 0.6 µM.

Consider `COc1ccc(C(=O)c2cc(O)ccc2O)cc1` [compound 8, (2,5-Dihydroxyphenyl)(4'-methoxyphenyl)methanone], for which the melting point fell in the range of 144 to 145 °C. Besides, in data set [5], the “MSI: Mean Selective Index” value is on record as 0.49. The EC50 in data set [1] turned out to be 170 ± 15.5 µM. Further, the EC50 in data set [2] is 191 ± 17.5 µM. In addition, the EC50 in data set [3] worked out at 168 ± 12.2 µM. Further, in data set [4], the EC50 is 85.2 ± 9.7 µM.

Take `COc1ccc(C(=O)c2cc(O)ccc2O)cc1OC` [compound 10, (2,5-Dihydroxyphenyl)(3,4-dimethoxyphenyl)methanone]: the melting point was 79 to 81 °C. The “MSI: Mean Selective Index” value in data set [5] turned out to be 0.23. For the same molecule, the EC50 in data set [1] worked out at 140 ± 13.6 µM. Further, the EC50 in data set [2] came out at 183 ± 17.7 µM. Moreover, in data set [3], the EC50 is 147 ± 19.2 µM. Besides, in data set [4], the EC50 was 35.4 ± 4.7 µM.

As for `Cc1ccccc1C(=O)c1cc(O)c2ccccc2c1O` [compound 14, (1,4-Dihydroxynaphthalen-2-yl)(2'-methylphenyl)methanone], the melting point was in the range of 132 to 133 °C. Besides, the “MSI: Mean Selective Index” value in data set [5] came to 1.54. Further, the EC50 in data set [1] stood at 144 ± 17.7 µM. In addition, the EC50 in data set [2] is 152 ± 14.5 µM. The EC50 in data set [3] was 143 ± 9.5 µM. Moreover, the EC50 in data set [4] amounted to 226 ± 25.4 µM.

For `O=C(c1ccccc1)c1cc(O)ccc1O` [compound 3, (2,5-Dihydroxyphenyl)(phenyl)methanone], the melting point lay in the range of 121 to 122 °C. In addition, the “MSI: Mean Selective Index” value in data set [5] is reported as 0.20. Besides, in data set [1], the EC50 amounted to 205 ± 21.5 µM. The EC50 in data set [2] was 190 ± 19.2 µM. The EC50 in data set [3] stood at 186 ± 20.4 µM. Moreover, the EC50 in data set [4] is 38.5 ± 5.5 µM.

As for `COc1ccc(OC)c(C(=O)c2cc(O)c3ccccc3c2O)c1` [compound 19, (1,4-Dihydroxynaphthalen-2-yl)(2',5'-dimethoxyphenyl)methanone], the melting point lay in the range of 160 to 161 °C. Also, in data set [5], the “MSI: Mean Selective Index” value amounted to 0.77. Also, the EC50 in data set [1] came to 129 ± 17.2 µM. Moreover, in data set [2], the EC50 is greater than 310 µM. Further, the EC50 in data set [3] came to 130 ± 10.1 µM. The EC50 in data set [4] came out at 100 ± 8.9 µM.

`COc1cccc(C(=O)c2cc(O)ccc2O)c1` [compound 7, (2,5-Dihydroxyphenyl)(3'-methoxyphenyl)methanone] showed a melting point of 97 to 98 °C. Also, the “MSI: Mean Selective Index” value in data set [5] worked out at 0.68. The EC50 in data set [1] came out at 166 ± 15.8 µM. Further, the EC50 in data set [2] worked out at 154 ± 12.3 µM. In data set [3], the EC50 came out at 210 ± 20.5 µM. For the same molecule, the EC50 in data set [4] was 118 ± 19.5 µM.

`COc1cccc(C(=O)c2cc(O)c3ccccc3c2O)c1` [compound 17, (1,4-Dihydroxynaphthalen-2-yl)(3'-methoxyphenyl)methanone] showed a melting point of 149 to 150 °C. The “MSI: Mean Selective Index” value in data set [5] came to 0.82. Also, the EC50 in data set [1] turned out to be 139 ± 11.3 µM. For the same molecule, the EC50 in data set [2] amounted to 128 ± 13.6 µM. In addition, the EC50 in data set [3] was 133 ± 12.4 µM. In data set [4], the EC50 stood at 109 ± 11.1 µM.

Consider `COc1ccc(C(=O)c2cc(O)c3ccccc3c2O)cc1` [compound 18, (1,4-Dihydroxynaphthalen-2-yl)(4'-methoxyphenyl)methanone], for which the melting point lay in the range of 150 to 151 °C. Besides, the “MSI: Mean Selective Index” value in data set [5] is 1.03. In data set [1], the EC50 turned out to be 77.5 ± 6.5 µM. Further, the EC50 in data set [2] amounted to 125 ± 10.2 µM. The EC50 in data set [3] was found to be 127 ± 10.6 µM. Moreover, the EC50 in data set [4] is 107 ± 12.3 µM.

The molecule `COc1cc(C(=O)c2cc(O)c3ccccc3c2O)cc(OC)c1O` [compound 23, (1,4-Dihydroxynaphthalen-2-yl)(4'-hydroxy-3',5'-dimethoxyphenyl)methanone] registered a melting point of 173 to 174 °C. Also, the “MSI: Mean Selective Index” value in data set [5] is 0.84. Moreover, the EC50 in data set [1] was determined as 114 ± 9.5 µM. For the same molecule, the EC50 in data set [2] amounted to 130 ± 14.8 µM. The EC50 in data set [3] stood at 112 ± 9.3 µM. Further, the EC50 in data set [4] was found to be 99.6 ± 7.5 µM.
